Measured values from PMC4883067 (Pharmacognosy Magazine, 2016).

What was measured:
rat brain MAO-B [1] = target: T1, rat brain MAO-B (Rattus norvegicus, UniProt P19643); assay: Inhibition of MAO-B activity in rat brain crude mitochondrial fraction; type: biochemical
T1 sequence (P19643 1-520): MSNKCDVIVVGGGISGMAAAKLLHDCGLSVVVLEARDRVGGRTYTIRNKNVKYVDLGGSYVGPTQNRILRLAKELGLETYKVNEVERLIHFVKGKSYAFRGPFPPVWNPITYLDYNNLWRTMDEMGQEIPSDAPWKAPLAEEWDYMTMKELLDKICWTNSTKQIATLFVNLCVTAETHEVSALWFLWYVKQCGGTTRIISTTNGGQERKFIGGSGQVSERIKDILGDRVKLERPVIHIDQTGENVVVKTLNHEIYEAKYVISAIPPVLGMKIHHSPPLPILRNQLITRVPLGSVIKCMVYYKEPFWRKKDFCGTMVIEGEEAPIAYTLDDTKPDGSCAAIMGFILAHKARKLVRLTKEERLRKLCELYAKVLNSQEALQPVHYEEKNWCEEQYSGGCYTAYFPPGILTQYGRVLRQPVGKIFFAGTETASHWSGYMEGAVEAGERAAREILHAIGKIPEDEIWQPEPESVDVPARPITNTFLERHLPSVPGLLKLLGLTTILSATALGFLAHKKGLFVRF

rat brain MAO-B [2] = target: T1, rat brain MAO-B; assay: Kinetics of monoamine oxidase inhibition; type: biochemical; conditions: for Mechanism of inhibition: MAO-B, substrate benzylamine, Lineweaver-Burk
[3] = cited from earlier work

IC50 (rat brain MAO-B [1]) [µM] | Mechanism of inhibition (rat brain MAO-B [2]) | Vmax (remained constant) (rat brain MAO-B [2]; ellagic acid, 200–600 μg/ml as printed, benzylamine 5-15 mM) [nM/min] | SMILES | pKa value [3]
0.5 | noncompetitive |  | COc1cc(C=CC(=O)CC(=O)C=Cc2ccc(O)c(OC)c2)ccc1O [Curcumin, 1,7-bis-(4-hydroxy-3-methoxyphenyl)-hepta-1,6-diene-3,5-dione] | 8.54
0.412 | Competitive | 8.40 | O=c1oc2c(O)c(O)cc3c(=O)oc4c(O)c(O)cc1c4c23 [Ellagic acid] | 
